Results on 32 molecules are retold here after PubChem BioAssay (NCI).

Structures are written as SMILES.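 Protocol summary: plate cells (96-well), add compound at 5 concentrations, incubate 48 h, interpolate endpoints linearly. TGI: total growth inhibition.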 Where only a bound is given, the exact number is not on record here.

For the first assay, the system named is M14 melanoma. Put plainly: growth of human tumour cells (NCI), 48 h.
As to `O=C(O)CSc1nnc(COc2ccc(Cl)cc2)n1-c1ccccc1`, the TGI was above 100 µM. Still for that read-out and setting: with `CN(C)CCCOc1nc2c(c(=O)n(C)c(=O)n2C)n1C` (tested in a mixture with another compound) the figure was above 100 µM; with `C[N+]1=C2[B-](C(C)(C)C)=[N+](C(C)(C)C)[B-]2(C(C)(C)C)[N+](C)=C2[B-](C(C)(C)C)=[N+](C(C)(C)C)[B-]21C(C)(C)C` (stereo not drawn), above 100 µM. `Cc1cc(N(CCC#N)CCC#N)ccc1/C=N/NC(=O)c1cc(Cl)ccc1O`: the TGI was above 100 µM. In turn, `Brc1ccc(CCNCCN2CCCCC2)cc1` registered a TGI of 29.6 µM.

As to `Cc1ccc(C(=O)Nc2ccc(CP(=O)(O)O)cc2CP(=O)(O)O)cc1NC(=O)c1cccc(N)c1`, the TGI is above 100 µM. In turn, `OC1C2[C@@H](O)CCCN2C[C@@H](O)[C@H]1O` (stereo partly drawn) gave a TGI above 100 µM. For `CN(C)/N=N/c1nc2c(c(=O)n(C)c(=O)n2C)n1C`, the TGI was above 100 µM. In turn, `COc1ccccc1N/C(=C\C(=O)C(=O)NC12CC3CC(CC(C3)C1)C2)c1ccccc1` had a TGI above 10 µM.

`CC(C)(C)c1ccc2c(c1)CNCCNCc1cc(C(C)(C)C)ccc1OCC1(CO2)COc2ccc(C(C)(C)C)cc2CNCCNCc2cc(C(C)(C)C)ccc2OC1` came in with a TGI of 1.45 µM. Turning to `CCN(CC)CCc1c2c(nc3ccccc13)C(=O)c1cccnc1C2=O`, the TGI was 1.73 µM.

For `Nc1cc(CO)cc(Nc2nc3ccc(Cl)cc3c3[nH]c4ccccc4c23)c1`, the TGI was determined as 16.7 µM. On the same count and under the same terms, as for `O=C(CC(=O)n1nc(-c2ccccc2)c(N=Nc2ccccc2C(=O)O)c1-c1ccccc1)Nc1ccc(Cl)cc1`, the figure is above 100 µM; as for `CCN1CC2=C(NC(=S)NC2c2ccc(Cl)cc2)/C(=C/c2ccc(Cl)cc2)C1` (stereo not drawn), above 100 µM.

`CN1C(=O)N(c2ccccc2)C2(CCN(CC3COc4ccccc4O3)CC2)C1=O` (stereo not drawn): the TGI was above 100 µM. In the case of `Oc1ccc(/C=C/c2cc(O)cc(O)c2)cc1`, the TGI is above 100 µM.

As for `OCC1CCCCCCCCCCC12SCCCS2` (stereo not drawn), the TGI is above 100 µM. Still for that read-out and setting: as for `O=C(O)c1cc2c(cc1CC(Cc1ccc3c(c1)CCC3)C(=O)O)CCC2` (stereo not drawn), the figure is above 100 µM; as for `O=C1CCC[C@@H]2NC[C@@H](c3ccc4c(c3)OCO4)[C@H]12`, above 25 µM; as for `O=C(Nc1ccc(Br)cc1)c1c(-c2ccccc2)c2ccc(O)cc2oc1=O`, above 10 µM. Same read-out and setting: as for `CC(O[Si](c1ccccc1)(c1ccccc1)C(C)(C)C)[C@H](NC(=O)OC(C)(C)C)C(=O)O[Si](c1ccccc1)(c1ccccc1)C(C)(C)C` (stereo partly drawn), the figure is 29.4 µM. On the same count and under the same terms, with `CC(C)c1ccc2[nH]c(O)c(-c3[nH]c4ccccc4c3N=O)c2c1` the figure was 23.6 µM. Consider `Cc1nc2c(sc(=S)n2-c2ccccc2)c2nc3ncccc3n12`, for which the TGI is above 100 µM. Still for that read-out and setting: as for `CCCc1cc(=O)c2c(C)c3[nH]c4ccc(Cl)cc4c3c(C)c2[nH]1`, the figure is 9.52 µM.

Take `Cc1nnc(Nc2ccccc2)o1`: the TGI was above 100 µM.

A further assay has as its system SK-MEL-28 melanoma. Put plainly: growth of human tumour cells (NCI), 48 h.
`NC(C(F)(F)F)(C(F)(F)F)P(=O)(Cc1ccccc1)Cc1ccccc1` had a TGI above 100 µM. Still for that read-out and setting: with `COc1ccc(C2CC(c3c(O)ccc4ccccc34)=NN2c2ccc([N+](=O)[O-])cc2[N+](=O)[O-])cc1OC` (stereo not drawn) the figure was above 100 µM; with `S=C(N/N=C\C=N/NC(=S)N1CCCCC1)N1CCCCC1`, above 100 µM. On the same count and under the same terms, with `C=C1CC(COc2cc(=O)oc3ccccc23)(c2ccccc2)OC1=O` (stereo not drawn) the figure was 6.13 µM; with `O=C(O)CSc1nnc(COc2ccc(Cl)cc2)n1-c1ccccc1`, above 100 µM. On the same count and under the same terms, with `CN(C)CCCOc1nc2c(c(=O)n(C)c(=O)n2C)n1C` (tested in a mixture with another compound) the figure was above 100 µM; with `C[N+]1=C2[B-](C(C)(C)C)=[N+](C(C)(C)C)[B-]2(C(C)(C)C)[N+](C)=C2[B-](C(C)(C)C)=[N+](C(C)(C)C)[B-]21C(C)(C)C` (stereo not drawn), above 100 µM; with `Brc1ccc(CCNCCN2CCCCC2)cc1`, 24.1 µM. Regarding `Cc1ccc(C(=O)Nc2ccc(CP(=O)(O)O)cc2CP(=O)(O)O)cc1NC(=O)c1cccc(N)c1`, the TGI is above 100 µM. The same measure, in the same setting: as for `OC1C2[C@@H](O)CCCN2C[C@@H](O)[C@H]1O` (stereo partly drawn), the figure is above 100 µM; as for `CN(C)/N=N/c1nc2c(c(=O)n(C)c(=O)n2C)n1C`, above 100 µM; as for `COc1ccccc1N/C(=C\C(=O)C(=O)NC12CC3CC(CC(C3)C1)C2)c1ccccc1`, above 10 µM. In turn, `CC(C)(C)c1ccc2c(c1)CNCCNCc1cc(C(C)(C)C)ccc1OCC1(CO2)COc2ccc(C(C)(C)C)cc2CNCCNCc2cc(C(C)(C)C)ccc2OC1` returned a TGI of 3.05 µM. Still for that read-out and setting: as for `CCN(CC)CCc1c2c(nc3ccccc13)C(=O)c1cccnc1C2=O`, the figure is 7.27 µM; as for `O=C(CC(=O)n1nc(-c2ccccc2)c(N=Nc2ccccc2C(=O)O)c1-c1ccccc1)Nc1ccc(Cl)cc1`, above 100 µM.

Take `CCN1CC2=C(NC(=S)NC2c2ccc(Cl)cc2)/C(=C/c2ccc(Cl)cc2)C1` (stereo not drawn): the TGI was above 100 µM.

As for `CN1C(=O)N(c2ccccc2)C2(CCN(CC3COc4ccccc4O3)CC2)C1=O` (stereo not drawn), the TGI was above 100 µM.

`Oc1ccc(/C=C/c2cc(O)cc(O)c2)cc1` gave a TGI above 100 µM. Take `O=C(O)c1c2c(cc3c1CC1(Cc4ccccc4C1)C3)CCC2`: the TGI is above 100 µM. The molecule `OCC1CCCCCCCCCCC12SCCCS2` (stereo not drawn) displayed a TGI above 100 µM. On the same count and under the same terms, as for `O=C(O)c1cc2c(cc1CC(Cc1ccc3c(c1)CCC3)C(=O)O)CCC2` (stereo not drawn), the figure is above 100 µM; as for `CC(C)=CCOC(=O)C(C)=[N+]=[N-]`, above 100 µM; as for `O=C1CCC[C@@H]2NC[C@@H](c3ccc4c(c3)OCO4)[C@H]12`, above 25 µM. As for `O=C(Nc1ccc(Br)cc1)c1c(-c2ccccc2)c2ccc(O)cc2oc1=O`, the TGI is above 10 µM. On the same count and under the same terms, as for `CC(O[Si](c1ccccc1)(c1ccccc1)C(C)(C)C)[C@H](NC(=O)OC(C)(C)C)C(=O)O[Si](c1ccccc1)(c1ccccc1)C(C)(C)C` (stereo partly drawn), the figure is 28.5 µM; as for `CC(C)c1ccc2[nH]c(O)c(-c3[nH]c4ccccc4c3N=O)c2c1`, 26.7 µM; as for `Cc1nc2c(sc(=S)n2-c2ccccc2)c2nc3ncccc3n12`, above 100 µM. `CCCc1cc(=O)c2c(C)c3[nH]c4ccc(Cl)cc4c3c(C)c2[nH]1` displayed a TGI of 3.14 µM. On the same count and under the same terms, as for `Cc1nnc(Nc2ccccc2)o1`, the figure is above 100 µM.

In a further assay the test system is LOX IMVI melanoma. Briefly: growth of human tumour cells (NCI), 48 h.
`NC(C(F)(F)F)(C(F)(F)F)P(=O)(Cc1ccccc1)Cc1ccccc1` came in with a TGI above 100 µM.

In turn, `COc1ccc(C2CC(c3c(O)ccc4ccccc34)=NN2c2ccc([N+](=O)[O-])cc2[N+](=O)[O-])cc1OC` (stereo not drawn) showed a TGI above 100 µM. Still for that read-out and setting: as for `S=C(N/N=C\C=N/NC(=S)N1CCCCC1)N1CCCCC1`, the figure is above 100 µM.

The molecule `CN1C(=O)C2C(=O)N(Cc3ccccc3)CC(=O)N2c2cccnc21` (stereo not drawn) gave a TGI above 100 µM. Same read-out and setting: with `C=C1CC(COc2cc(=O)oc3ccccc23)(c2ccccc2)OC1=O` (stereo not drawn) the figure was 3.2 µM. The same measure, in the same setting: with `O=C(O)CSc1nnc(COc2ccc(Cl)cc2)n1-c1ccccc1` the figure was above 100 µM; with `CN(C)CCCOc1nc2c(c(=O)n(C)c(=O)n2C)n1C` (tested in a mixture with another compound), 9.8 µM; with `C[N+]1=C2[B-](C(C)(C)C)=[N+](C(C)(C)C)[B-]2(C(C)(C)C)[N+](C)=C2[B-](C(C)(C)C)=[N+](C(C)(C)C)[B-]21C(C)(C)C` (stereo not drawn), above 100 µM. On the same count and under the same terms, with `Brc1ccc(CCNCCN2CCCCC2)cc1` the figure was 27.6 µM.
